Where only a bound is given, the exact number is not on record here.

For the first assay, the system named is Streptococcus Pheumoniae 5979. The experiment in a line: in vitro antibacterial activity, agar dilution MIC. Format: cell-based. Particulars: Organism code ZZ; BHI agar, 35-37° C., 20 to 24 hours. The method, then:
(§1) Representative compounds of the present invention were assayed in vitro for antibacterial activity as follows: Twelve petri dishes containing successive aqueous dilutions of the test compound mixed with 10 mL of sterilized Brain Heart Infusion (BHI) agar (Difco 0418-01-5) were prepared. Each plate was inoculated with 1:100 (or 1:10 for slow-growing strains, such as Micrococcus and Streptococcus) dilutions of up to 32 different microorganisms, using a Steers replicator block. […] In addition, a control plate, using BHI agar containing no test compound, was prepared and incubated at the beginning and end of each test.
(§2) An additional plate containing a compound having known susceptibility patterns for the organisms being tested and belonging to the same antibiotic class as the test compound was also prepared and incubated as a further control, as well as to provide test-to-test comparability.
(§3) After incubation, each plate was visually inspected. The minimum inhibitory concentration (MIC) was defined as the lowest concentration of drug yielding no growth, a slight haze, or sparsely isolated colonies on the inoculum spot as compared to the growth control.
For the compound `CC[C@H]1OC(=O)[C@H](C)C(=O)[C@H](C)[C@@H](O[C@@H]2O[C@H](C)C[C@H](N(C)CC#N)[C@H]2O)[C@](C)(OCC=Cc2cnc3ccccc3c2)C[C@@H](C)C(=O)[C@H](C)[C@H]2NC(=O)O[C@@]21C` [Example 9], the “minimum inhibitory concentration (MIC)” value came to 128. The same measure, in the same setting: for `CC[C@H]1OC(=O)[C@H](C)C(=O)[C@H](C)[C@@H](O[C@@H]2O[C@H](C)C[C@H](N(C)Cc3cccnc3)[C@H]2O)[C@](C)(OCC=Cc2cnc3ccccc3c2)C[C@@H](C)C(=O)[C@H](C)[C@H]2NC(=O)O[C@@]21C` [Example 14] the value was over 128; for `CC[C@H]1OC(=O)[C@H](C)C(=O)[C@H](C)[C@@H](O[C@@H]2O[C@H](C)C[C@H](N(C)CC3CC3)[C@H]2O)[C@](C)(OCC=Cc2cnc3ccccc3c2)C[C@@H](C)C(=O)[C@H](C)[C@H]2NC(=O)O[C@@]21C` [Example 15], over 128. Same read-out and setting: for `CCCN(C)[C@H]1C[C@@H](C)O[C@@H](O[C@@H]2[C@@H](C)C(=O)[C@@H](C)C(=O)O[C@H](CC)[C@@]3(C)OC(=O)N[C@@H]3[C@@H](C)C(=O)[C@H](C)C[C@@]2(C)OCC=Cc2cnc3ccccc3c2)[C@@H]1O` [Example 16] the value was 128. In the case of `C=C(CN(C)[C@H]1C[C@@H](C)O[C@@H](O[C@@H]2[C@@H](C)C(=O)[C@@H](C)C(=O)O[C@H](CC)[C@@]3(C)OC(=O)N[C@@H]3[C@@H](C)C(=O)[C@H](C)C[C@@]2(C)OCC=Cc2cnc3ccccc3c2)[C@@H]1O)C(=O)OC` [Example 18], the “minimum inhibitory concentration (MIC)” value stood at 128. In the case of `C=C(C)CN(C)[C@H]1C[C@@H](C)O[C@@H](O[C@@H]2[C@@H](C)C(=O)[C@@H](C)C(=O)O[C@H](CC)[C@@]3(C)OC(=O)N[C@@H]3[C@@H](C)C(=O)[C@H](C)C[C@@]2(C)OCC=Cc2cnc3ccccc3c2)[C@@H]1O` [Example 19], the “minimum inhibitory concentration (MIC)” value stood at 128.

Another assay concerns Escherichia coli DC-2. The experiment in a line: in vitro antibacterial activity, agar dilution MIC. Format: cell-based. To be noted: Organism code SS; BHI agar, 35-37° C., 20 to 24 hours. The method, then:
as §1, §2, §3
With `CC[C@H]1OC(=O)[C@H](C)C(=O)[C@H](C)[C@@H](O[C@@H]2O[C@H](C)C[C@H](N(C)CCF)[C@H]2O)[C@](C)(OCC=Cc2cnc3ccccc3c2)C[C@@H](C)C(=O)[C@H](C)[C@H]2NC(=O)O[C@@]21C` [Example 7], the “minimum inhibitory concentration (MIC)” value was over 100.

The values are drawn from patent US6034069A, “3-'N-modified 6-O-substituted erythromycin ketolide derivatives having antibacterial activity” (priority 1998, dated 2000).
